Laboratory results published in US7470711B2, “Piperidinyl substituted cyclohexane-1,4-diamines” (Janssen Pharmaceutica N.V., priority 2005, dated 2008).
Where a name gives a salt, the structure may show the parent alone. Read-outs that look alike come from different tables or passages of the source.

How the values were obtained:
α1a-AR = target: T1, α1a-AR (Homo sapiens, UniProt P35348); assay: α1-Adrenergic receptor radio-ligand binding assay, α1a subtype
T1 construct: expressed in transfected cells; host or cells: COS-7 cells (membranes)
T1 sequence (P35348 1-455 isoform P35348-4): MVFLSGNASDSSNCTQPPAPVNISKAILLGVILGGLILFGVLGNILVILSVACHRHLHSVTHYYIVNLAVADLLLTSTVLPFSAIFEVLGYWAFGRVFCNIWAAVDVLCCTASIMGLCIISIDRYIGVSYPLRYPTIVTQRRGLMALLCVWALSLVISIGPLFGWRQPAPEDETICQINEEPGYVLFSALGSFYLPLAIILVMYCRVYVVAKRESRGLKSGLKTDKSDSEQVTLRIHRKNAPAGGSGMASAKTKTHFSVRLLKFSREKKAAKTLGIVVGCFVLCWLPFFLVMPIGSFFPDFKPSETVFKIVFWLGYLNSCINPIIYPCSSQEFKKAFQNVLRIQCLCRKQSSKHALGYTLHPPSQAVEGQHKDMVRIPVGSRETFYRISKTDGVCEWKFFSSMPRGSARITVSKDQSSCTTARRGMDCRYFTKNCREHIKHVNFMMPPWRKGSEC
Protocol: (§1) Membranes were prepared from COS-7 cells (African Green monkey kidney SV40-transformed cells) that had been transfected with one of the three α1-AR subtypes (Genbank accession number for the α1a subtype: AF013261; Genbank accession number for the α1b subtype: NM000679; Genbank accession number for the α1d subtype: NM000678) using the following method: COS cells from ten 100 mm tissue culture plates were scraped into a 5 mL volume of TE (a mixture of 50 mM Tris-HCl, 5 mM EDTA, pH 7.4). […] The disrupted cells were centrifuged at 1000×g for 10 min at 4° C. Supernatants were centrifuged at 34,500×g for 20 min at 4° C. The membrane pellets were suspended in a 2 mL volume of TNE (a mixture of 50 mM Tris-HCl, 5 mM EDTA and 150 mM NaCl at pH 7.4). An aliquot of the membrane suspension was stored at −70° C. until use. The protein concentration was determined using the BioRad “DC” protein assay kit following membrane solubilization with Triton X-100.
(§2) Triplicate determinations of radio-ligand binding in the presence of increasing concentrations of testing compound were made. The reagents were added to 96-well polypropylene plate wells. […] The plate was incubated at rt for 1 hr. The contents of the wells were filtered through a glass filter (type C) (GF/C) membrane Unifilter plate (Packard Instruments) using the Packard Filtermate cell harvester. The filter plates were dried in a vacuum oven for 30 min at 40° C. 25 μL Microscint 20 liquid scintillation fluid (Packard Instuments) was added to each well. The radioactive content was analyzed in the TopCount microplate scintillation counter (Packard Instruments).

α1b-AR = target: T2, α1b-AR (Homo sapiens, UniProt P35368); assay: α1-Adrenergic receptor radio-ligand binding assay, α1b subtype
T2 construct: expressed in transfected cells; host or cells: COS-7 cells (membranes)
T2 sequence (P35368 1-520): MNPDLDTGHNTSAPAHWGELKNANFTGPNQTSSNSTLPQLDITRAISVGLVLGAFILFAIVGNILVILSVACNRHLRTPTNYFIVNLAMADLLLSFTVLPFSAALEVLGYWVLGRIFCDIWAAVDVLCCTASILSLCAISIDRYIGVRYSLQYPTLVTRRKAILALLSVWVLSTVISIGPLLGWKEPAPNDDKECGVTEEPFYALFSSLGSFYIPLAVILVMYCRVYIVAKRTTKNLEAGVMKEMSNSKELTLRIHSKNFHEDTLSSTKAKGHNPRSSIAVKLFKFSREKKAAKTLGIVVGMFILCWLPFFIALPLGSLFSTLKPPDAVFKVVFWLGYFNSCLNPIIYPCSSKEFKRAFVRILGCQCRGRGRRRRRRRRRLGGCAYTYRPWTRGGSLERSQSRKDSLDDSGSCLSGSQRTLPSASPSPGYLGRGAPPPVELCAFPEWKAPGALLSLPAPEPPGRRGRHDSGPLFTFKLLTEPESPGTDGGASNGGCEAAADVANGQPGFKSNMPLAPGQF
Protocol: as §1, §2

α1d-AR = target: T3, α1d-AR (Homo sapiens, UniProt P25100); assay: α1-Adrenergic receptor radio-ligand binding assay, α1d subtype
T3 construct: expressed in transfected cells; host or cells: COS-7 cells (membranes)
T3 sequence (P25100 1-572): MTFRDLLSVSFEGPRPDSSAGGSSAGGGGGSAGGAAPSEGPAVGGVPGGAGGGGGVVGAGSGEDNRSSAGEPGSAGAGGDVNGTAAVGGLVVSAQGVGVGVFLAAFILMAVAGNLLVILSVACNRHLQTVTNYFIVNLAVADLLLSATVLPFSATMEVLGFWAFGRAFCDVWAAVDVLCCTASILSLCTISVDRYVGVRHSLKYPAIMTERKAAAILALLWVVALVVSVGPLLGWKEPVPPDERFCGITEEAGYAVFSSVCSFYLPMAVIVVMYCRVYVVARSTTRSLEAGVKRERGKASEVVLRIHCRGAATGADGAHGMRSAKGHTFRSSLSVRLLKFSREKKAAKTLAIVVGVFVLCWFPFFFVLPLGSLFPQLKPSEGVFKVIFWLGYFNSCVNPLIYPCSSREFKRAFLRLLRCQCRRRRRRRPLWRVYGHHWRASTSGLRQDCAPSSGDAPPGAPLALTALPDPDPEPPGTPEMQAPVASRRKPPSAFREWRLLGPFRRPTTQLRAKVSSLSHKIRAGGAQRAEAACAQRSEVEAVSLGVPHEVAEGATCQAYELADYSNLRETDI
Protocol: as §1, §2

[1] = 125I-HEAT, membranes of COS-7 cells transfected with α1a subtype, rt 1 hr, read-out: Receptor Binding, Ki α1a-AR
[2] = 125I-HEAT, membranes of COS-7 cells transfected with α1b subtype, rt 1 hr, read-out: Receptor Binding, Ki α1b-AR
[3] = 125I-HEAT, membranes of COS-7 cells transfected with α1d subtype, rt 1 hr, read-out: Receptor Binding, Ki α1d-AR

| Compound | Ki (α1a-AR; [1]) [nM] | Ki (α1b-AR; [2]) [nM] | Ki (α1d-AR) [nM] | melting point | Ki (α1a-AR) [nM] | Ki (α1d-AR; [3]) [nM] | Ki (α1b-AR) [nM] |
| --- | --- | --- | --- | --- | --- | --- | --- |
| COc1ccc(Cl)cc1S(=O)(=O)N[C@H]1CC[C@@H](N2CCC(c3ccccc3OCC(F)(F)F)CC2)CC1 [Cpd 17, 5-chloro-2-methoxy-N-cis-(4-{4-[2-(2,2,2-trifluoro-ethoxy)-phenyl]-piperidin-1-yl}-cyclohexyl)-benzenesulfonamide] | 6.2 | 216 | 1.5 | 200 °C |  |  |  |
| COc1ccc(S(=O)(=O)N[C@H]2CC[C@H](N3CCC(c4ccccc4OCC(F)F)CC3)CC2)cc1OC [Cpd 30, N-trans-(4-{4-[2-(2,2-difluoro-ethoxy)-phenyl]-piperidin-1-yl}-cyclohexyl)-3,4-dimethoxy-benzenesulfonamide] |  | 681 |  | 197 °C | 30.5 | 86 |  |
| CC(C)Oc1ccccc1C1CCN([C@H]2CC[C@@H](NS(=O)(=O)c3ccc(F)c(F)c3)CC2)CC1 [Cpd 3, 3,4-difluoro-N-cis-{4-[4-(2-isopropoxy-phenyl)-piperidin-1-yl]-cyclohexyl}-benzenesulfonamide] | 3 | 470 |  | 176 °C |  | 7.3 |  |
| CC(C)Oc1ccccc1C1CCN([C@H]2CC[C@H](NS(=O)(=O)c3ccc(F)c(F)c3)CC2)CC1 [Cpd 4, 3,4-difluoro-N-trans-{4-[4-(2-isopropoxy-phenyl)-piperidin-1-yl]-cyclohexyl}-benzenesulfonamide] |  |  | 88.6 | 239 °C |  |  |  |
| COc1ccc(S(=O)(=O)N[C@H]2CC[C@@H](N3CCC(c4ccccc4OCC(F)F)CC3)CC2)cc1OC [Cpd 29, N-cis-(4-{4-[2-(2,2-difluoro-ethoxy)-phenyl]-piperidin-1-yl}-cyclohexyl)-3,4-dimethoxy-benzenesulfonamide] | 12 | 300 |  | 219 °C |  | 4.1 |  |
| O=S(=O)(N[C@H]1CC[C@H](N2CCC(c3ccccc3OCC(F)(F)F)CC2)CC1)c1cccc(OC(F)F)c1 [Cpd 24, 3-difluoromethoxy-N-trans-(4-{4-[2-(2,2,2-trifluoro-ethoxy)-phenyl]-piperidin-1-yl}-cyclohexyl)-benzenesulfonamide] | 12 | 355 |  | 169 °C |  | 70 |  |
| O=S(=O)(N[C@H]1CC[C@@H](N2CCC(c3ccccc3OCC(F)(F)F)CC2)CC1)c1ccc2c(c1)OCCO2 [Cpd 13, 2,3-dihydro-benzo[1,4]dioxine-6-sulfonic acid cis-(4-{4-[2-(2,2,2-trifluoro-ethoxy)-phenyl]-piperidin-1-yl}-cyclohexyl)-amide] |  |  | 3 | 190 °C | 4 |  | 92 |
| O=S(=O)(N[C@H]1CC[C@@H](N2CCC(c3ccccc3OCC(F)(F)F)CC2)CC1)c1cccc(OC(F)F)c1 [Cpd 23, 3-difluoromethoxy-N-cis-(4-{4-[2-(2,2,2-trifluoro-ethoxy)-phenyl]-piperidin-1-yl}-cyclohexyl)-benzenesulfonamide] | 7 | 261 |  | 105 °C |  | 5.9 |  |
| O=S(=O)(N[C@H]1CC[C@@H](N2CCC(c3ccccc3OCC(F)(F)F)CC2)CC1)c1cc(Cl)ccc1F [Cpd 19, 5-chloro-2-fluoro-N-cis-(4-{4-[2-(2,2,2-trifluoro-ethoxy)-phenyl]-piperidin-1-yl}-cyclohexyl)-benzenesulfonamide] |  | 181 |  | 204 °C | 5.8 | 0.97 |  |
| O=S(=O)(N[C@H]1CC[C@H](N2CCC(c3ccccc3OCC(F)(F)F)CC2)CC1)c1cc(Cl)ccc1F [Cpd 20, 5-chloro-2-fluoro-N-trans-(4-{4-[2-(2,2,2-trifluoro-ethoxy)-phenyl]-piperidin-1-yl}-cyclohexyl)-benzenesulfonamide] |  | 786 |  | 227 °C | 4.7 | 43.9 |  |
| COc1ccc(S(=O)(=O)N[C@H]2CC[C@H](N3CCC(c4ccccc4OCCF)CC3)CC2)cc1OC [Cpd 28, N-trans-(4-{4-[2-(2-fluoro-ethoxy)-phenyl]-piperidin-1-yl}-cyclohexyl)-3,4-dimethoxy-benzenesulfonamide] | 68.8 | 4400 |  | 142 °C |  | 48.6 |  |
| COc1ccc(S(=O)(=O)N[C@H]2CC[C@@H](N3CCC(c4ccccc4OCC(F)(F)F)CC3)CC2)cc1OC (as salt: fumarate) [Cpd 5, 3,4-dimethoxy-N-cis-(4-{4-[2-(2,2,2-trifluoro-ethoxy)-phenyl]-piperidin-1-yl}-cyclohexyl)-benzenesulfonamide] |  |  |  | 201 °C (dec.) |  |  |  |
| COc1ccc(S(=O)(=O)N[C@H]2CC[C@@H](N3CCC(c4ccccc4OC(C)C)CC3)CC2)cc1OC (as salt: fumarate) [Cpd 1, N-cis-{4-[4-(2-isopropoxy-phenyl)-piperidin-1-yl]-cyclohexyl}-3,4-dimethoxy-benzenesulfonamide] |  |  |  | 221 °C |  |  |  |
| COc1ccc(S(=O)(=O)N[C@H]2CC[C@@H](N3CCC(c4ccccc4OCCF)CC3)CC2)cc1OC [Cpd 27, N-cis-(4-{4-[2-(2-fluoro-ethoxy)-phenyl]-piperidin-1-yl}-cyclohexyl)-3,4-dimethoxy-benzenesulfonamide] | 10.9 | 354 |  | 225 °C |  | 8.8 |  |
| O=S(=O)(N[C@H]1CC[C@H](N2CCC(c3ccccc3OCC(F)(F)F)CC2)CC1)c1ccc(OC(F)F)cc1 [Cpd 26, 4-difluoromethoxy-N-trans-(4-{4-[2-(2,2,2-trifluoro-ethoxy)-phenyl]-piperidin-1-yl}-cyclohexyl)-benzenesulfonamide] |  | 302 |  | 155 °C | 37.5 | 85.7 |  |
| O=S(=O)(N[C@H]1CC[C@H](N2CCC(c3ccccc3OCC(F)(F)F)CC2)CC1)c1ccc2c(c1)OCCO2 [Cpd 14, 2,3-dihydro-benzo[1,4]dioxine-6-sulfonic acid trans-(4-{4-[2-(2,2,2-trifluoro-ethoxy)-phenyl]-piperidin-1-yl}-cyclohexyl)-amide] |  |  | 26 | 146 °C | 2.2 |  | 90.6 |
